Reference: PubChem BioAssay (NCI)
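The compound was tested at five concentrations on cells cultured in 96-well plates, with a 48-hour exposure period. GI50: concentration for 50% inhibition of growth. TGI marks complete inhibition of growth.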

What was measured:
Assay in all cases: NCI-60 cell line screen, 48 h
OVCAR-4 ovarian = tested on: OVCAR-4 ovarian
CAKI-1 renal = tested on: CAKI-1 renal
786-0 renal = tested on: 786-0 renal
NCI-H23 lung = tested on: NCI-H23 lung
UACC-257 melanoma = tested on: UACC-257 melanoma
HL-60(TB) leukemia = tested on: HL-60(TB) leukemia
SF-539 CNS = tested on: SF-539 CNS
A498 renal = tested on: A498 renal
MALME-3M melanoma = tested on: MALME-3M melanoma
MOLT-4 leukemia = tested on: MOLT-4 leukemia
SF-295 CNS = tested on: SF-295 CNS
SNB-75 CNS = tested on: SNB-75 CNS
OVCAR-5 ovarian = tested on: OVCAR-5 ovarian
K-562 leukemia = tested on: K-562 leukemia
SK-MEL-2 melanoma = tested on: SK-MEL-2 melanoma
HOP-62 NSCLC = tested on: HOP-62 NSCLC
SF-268 CNS = tested on: SF-268 CNS
SK-MEL-5 melanoma = tested on: SK-MEL-5 melanoma
EKVX NSCLC = tested on: EKVX NSCLC
TK-10 renal = tested on: TK-10 renal
HCT-116 colon = tested on: HCT-116 colon
SK-OV-3 ovarian = tested on: SK-OV-3 ovarian
SK-MEL-28 melanoma = tested on: SK-MEL-28 melanoma
SNB-19 CNS = tested on: SNB-19 CNS
RPMI-8226 leukemia = tested on: RPMI-8226 leukemia
OVCAR-8 ovarian = tested on: OVCAR-8 ovarian
MDA-MB-468 breast = tested on: MDA-MB-468 breast
A549 NSCLC = tested on: A549 NSCLC
NCI-H522 lung = tested on: NCI-H522 lung
UO-31 renal = tested on: UO-31 renal
CCRF-CEM leukemia = tested on: CCRF-CEM leukemia
LOX IMVI melanoma = tested on: LOX IMVI melanoma
MDA-MB-435 = tested on: MDA-MB-435
SN12C renal = tested on: SN12C renal
M14 melanoma = tested on: M14 melanoma
SR leukemia = tested on: SR leukemia
SW-620 colon = tested on: SW-620 colon
HCC-2998 colon = tested on: HCC-2998 colon
HS 578T breast = tested on: HS 578T breast
PC-3 prostate = tested on: PC-3 prostate
MCF7 breast = tested on: MCF7 breast
HOP-92 NSCLC = tested on: HOP-92 NSCLC
IGROV1 ovarian = tested on: IGROV1 ovarian
COLO 205 colon = tested on: COLO 205 colon
NCI/ADR-RES ovarian = tested on: NCI/ADR-RES ovarian
HCT-15 colon = tested on: HCT-15 colon
HT29 colon = tested on: HT29 colon
NCI-H226 lung = tested on: NCI-H226 lung
NCI-H460 lung = tested on: NCI-H460 lung
BT-549 breast = tested on: BT-549 breast
UACC-62 melanoma = tested on: UACC-62 melanoma
OVCAR-3 ovarian = tested on: OVCAR-3 ovarian
DU-145 prostate = tested on: DU-145 prostate
U251 CNS = tested on: U251 CNS
RXF 393 renal = tested on: RXF 393 renal
KM12 colon = tested on: KM12 colon
T-47D breast = tested on: T-47D breast
ACHN renal = tested on: ACHN renal
MDA-MB-231 breast = tested on: MDA-MB-231 breast

For `O=C(O)CCCCCCCCCCN1C(=O)/C(=C/c2cnc(-c3ccc(Cl)cc3)s2)SC1=S`, the GI50 (OVCAR-4 ovarian) was 5.56 µM, the TGI (OVCAR-4 ovarian) was greater than 100 µM and the GI50 (CAKI-1 renal) was 3.31 µM. It also gave a TGI (CAKI-1 renal) of 14.3 µM, a GI50 (786-0 renal) of 2.64 µM and a TGI (786-0 renal) of 9.67 µM. For the same compound, the GI50 (NCI-H23 lung) was 2.43 µM, the TGI (NCI-H23 lung) was 8.95 µM and the GI50 (UACC-257 melanoma) was 5.6 µM. For the same compound, the TGI (UACC-257 melanoma) was greater than 100 µM, the GI50 (HL-60(TB) leukemia) was 3.91 µM and the TGI (HL-60(TB) leukemia) was greater than 100 µM. The GI50 (SF-539 CNS) was 3.18 µM, the TGI (SF-539 CNS) was 13.2 µM and the GI50 (A498 renal) was 15.9 µM. It also gave a TGI (A498 renal) of 34.5 µM, a GI50 (MALME-3M melanoma) of 5.92 µM and a TGI (MALME-3M melanoma) of 28.1 µM. The GI50 (MOLT-4 leukemia) was 3.39 µM, the TGI (MOLT-4 leukemia) was greater than 100 µM and the GI50 (SF-295 CNS) was 2.29 µM. It also gave a TGI (SF-295 CNS) of 7.26 µM, a GI50 (SNB-75 CNS) of 15.4 µM and a TGI (SNB-75 CNS) of 42.3 µM. The GI50 (OVCAR-5 ovarian) was 2.59 µM, the TGI (OVCAR-5 ovarian) was greater than 100 µM and the GI50 (K-562 leukemia) was 3.71 µM. The TGI (K-562 leukemia) was greater than 100 µM, the GI50 (SK-MEL-2 melanoma) was 2.12 µM and the TGI (SK-MEL-2 melanoma) was 5.02 µM. For the same compound, the GI50 (HOP-62 NSCLC) was 3.81 µM, the TGI (HOP-62 NSCLC) was 15.9 µM and the GI50 (SF-268 CNS) was 4.99 µM. The TGI (SF-268 CNS) was greater than 100 µM, the GI50 (SK-MEL-5 melanoma) was 1.86 µM and the TGI (SK-MEL-5 melanoma) was 4.74 µM. It also gave a GI50 (EKVX NSCLC) of 1.84 µM, a TGI (EKVX NSCLC) of 5.13 µM and a GI50 (TK-10 renal) of 5.48 µM. For the same compound, the TGI (TK-10 renal) was 16.1 µM, the GI50 (HCT-116 colon) was 1.75 µM and the TGI (HCT-116 colon) was 7.51 µM. The GI50 (SK-OV-3 ovarian) was 3.24 µM, the TGI (SK-OV-3 ovarian) was 8.72 µM and the GI50 (SK-MEL-28 melanoma) was 2.69 µM. The GI50 (SNB-19 CNS) was 2.86 µM, the TGI (SNB-19 CNS) was 9.76 µM and the GI50 (RPMI-8226 leukemia) was 10.3 µM. For the same compound, the TGI (RPMI-8226 leukemia) was greater than 100 µM, the GI50 (OVCAR-8 ovarian) was 1.65 µM and the TGI (OVCAR-8 ovarian) was 5.11 µM. For the same compound, the GI50 (MDA-MB-468 breast) was 2.63 µM, the TGI (MDA-MB-468 breast) was 12 µM and the GI50 (A549 NSCLC) was 1.01 µM. The TGI (A549 NSCLC) was 4.51 µM, the GI50 (NCI-H522 lung) was 1.68 µM and the TGI (NCI-H522 lung) was 4.55 µM. It also gave a GI50 (UO-31 renal) of 3.76 µM, a TGI (UO-31 renal) of 28.2 µM and a GI50 (CCRF-CEM leukemia) of 3.11 µM. It also gave a TGI (CCRF-CEM leukemia) greater than 100 µM, a GI50 (LOX IMVI melanoma) of 1.69 µM and a TGI (LOX IMVI melanoma) of 3.87 µM. It also gave a GI50 (MDA-MB-435) of 4.69 µM, a TGI (MDA-MB-435) greater than 100 µM and a GI50 (SN12C renal) of 1.39 µM. The TGI (SN12C renal) was 2.89 µM, the GI50 (M14 melanoma) was 2.1 µM and the TGI (M14 melanoma) was 5.71 µM. The GI50 (SR leukemia) was 0.367 µM, the TGI (SR leukemia) was 4.8 µM and the GI50 (SW-620 colon) was 2.52 µM. For the same compound, the TGI (SW-620 colon) was 7.21 µM, the GI50 (HCC-2998 colon) was 5.03 µM and the TGI (HCC-2998 colon) was greater than 100 µM. For the same compound, the GI50 (HS 578T breast) was 11.7 µM, the TGI (HS 578T breast) was greater than 100 µM and the GI50 (PC-3 prostate) was 1.26 µM. For the same compound, the TGI (PC-3 prostate) was 4.9 µM, the GI50 (MCF7 breast) was 3.73 µM and the TGI (MCF7 breast) was greater than 100 µM. The GI50 (HOP-92 NSCLC) was 0.292 µM, the TGI (HOP-92 NSCLC) was 1.79 µM and the GI50 (IGROV1 ovarian) was 2.89 µM. For the same compound, the TGI (IGROV1 ovarian) was 13.7 µM, the GI50 (COLO 205 colon) was greater than 100 µM and the TGI (COLO 205 colon) was greater than 100 µM. For the same compound, the GI50 (NCI/ADR-RES ovarian) was 1.69 µM, the TGI (NCI/ADR-RES ovarian) was 8.18 µM and the GI50 (HCT-15 colon) was 1.71 µM. For the same compound, the TGI (HCT-15 colon) was 3.67 µM, the GI50 (HT29 colon) was greater than 100 µM and the TGI (HT29 colon) was greater than 100 µM. For the same compound, the GI50 (NCI-H226 lung) was 6.46 µM, the TGI (NCI-H226 lung) was 57.2 µM and the GI50 (NCI-H460 lung) was 1.37 µM. The TGI (NCI-H460 lung) was greater than 100 µM, the GI50 (BT-549 breast) was 1.95 µM and the TGI (BT-549 breast) was 6.1 µM. For the same compound, the GI50 (UACC-62 melanoma) was 1.57 µM, the TGI (UACC-62 melanoma) was 3.29 µM and the GI50 (OVCAR-3 ovarian) was 4.87 µM. It also gave a TGI (OVCAR-3 ovarian) of 51.4 µM, a GI50 (DU-145 prostate) of 1.81 µM and a TGI (DU-145 prostate) of 30 µM. It also gave a GI50 (U251 CNS) of 2.07 µM, a TGI (U251 CNS) of 6.06 µM and a GI50 (RXF 393 renal) of 12.1 µM. The TGI (RXF 393 renal) was 47.3 µM, the GI50 (KM12 colon) was 2.93 µM and the TGI (KM12 colon) was greater than 100 µM. It also gave a GI50 (T-47D breast) of 4.77 µM, a TGI (T-47D breast) greater than 100 µM and a GI50 (ACHN renal) of 2.38 µM. The TGI (ACHN renal) was 11.7 µM, the GI50 (MDA-MB-231 breast) was 1.65 µM and the TGI (MDA-MB-231 breast) was 4.48 µM.
